Literature values as cited in patent US20100197018A1, “USE OF SUBSTRATES AS PHARMACOLOGICAL CHAPERONES” (AMICUS THERAPEUTICS, INC., priority 2007, published 2010).
Like-named read-outs stand apart in the source and are kept apart here.

Legend:
[1] = target: BACEI (Homo sapiens, UniProt P56817); conditions: low concentrations
[2] = target: T1, N-acetyl-glucosamine-6-sulfate sulfatase (6S) Form B (Homo sapiens, UniProt P15586)
T1 sequence (P15586 37-552): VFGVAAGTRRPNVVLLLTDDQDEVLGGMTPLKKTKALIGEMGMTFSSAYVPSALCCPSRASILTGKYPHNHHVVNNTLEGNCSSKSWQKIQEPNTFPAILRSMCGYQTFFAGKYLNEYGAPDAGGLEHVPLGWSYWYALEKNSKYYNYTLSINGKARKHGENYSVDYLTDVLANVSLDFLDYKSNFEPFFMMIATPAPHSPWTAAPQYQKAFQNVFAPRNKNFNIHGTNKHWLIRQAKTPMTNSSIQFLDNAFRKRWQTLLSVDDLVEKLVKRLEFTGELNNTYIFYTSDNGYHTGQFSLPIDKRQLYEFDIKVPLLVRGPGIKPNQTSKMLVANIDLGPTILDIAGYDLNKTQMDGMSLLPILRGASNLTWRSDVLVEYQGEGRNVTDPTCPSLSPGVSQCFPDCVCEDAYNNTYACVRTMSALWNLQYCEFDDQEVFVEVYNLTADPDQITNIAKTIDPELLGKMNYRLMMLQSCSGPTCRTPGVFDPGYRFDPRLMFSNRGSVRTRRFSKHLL

[3] = target: T2, N-acetyl-glucosamine-6-sulfate sulfatase (6S) Form A (Homo sapiens, UniProt P15586); conditions: for Relative catalytic efficiency*: kcat./Km calculated relative to a value for GlcNAc6S = 1; for pH optimum: Table 6; for Ratio of catalytic efficiencies: form A/form B: form A over form B
T2 sequence (P15586 37-552): T1 sequence (P15586 37-552)

[4] = target: T3, heparan-N-sulfatase (Homo sapiens, UniProt P51688); conditions: 37°; for Relative catalytic efficiency*: GlcNS = 1.00
T3 sequence (P51688 21-502): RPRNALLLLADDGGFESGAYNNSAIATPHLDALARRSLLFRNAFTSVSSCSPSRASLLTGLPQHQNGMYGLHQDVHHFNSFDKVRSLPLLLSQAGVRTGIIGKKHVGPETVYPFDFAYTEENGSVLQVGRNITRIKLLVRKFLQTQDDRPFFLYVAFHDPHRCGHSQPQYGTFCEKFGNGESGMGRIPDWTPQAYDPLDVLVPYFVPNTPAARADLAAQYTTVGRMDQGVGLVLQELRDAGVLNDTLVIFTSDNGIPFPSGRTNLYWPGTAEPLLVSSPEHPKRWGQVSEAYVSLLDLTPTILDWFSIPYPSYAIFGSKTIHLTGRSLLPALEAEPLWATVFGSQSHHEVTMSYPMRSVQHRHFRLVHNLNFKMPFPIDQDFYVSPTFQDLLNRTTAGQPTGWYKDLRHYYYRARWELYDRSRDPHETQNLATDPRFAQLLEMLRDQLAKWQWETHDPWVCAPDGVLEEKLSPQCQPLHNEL

[5] = in vivo
[6] = second line of the substrate, parentheses not explained
[7] = pH 5.6 (second line of the substrate)
[8] = pH: GlcNS-Ido 6.7, GlcNS-Ido2S 5.5, GlcNS-IdOA 5.6, GlcNS-IdoA-GlcNS-IdOA 5.6, GlcNS-IdoA2S-anM6S 3.6, GlcNS6S-Ido 4.2, GlcNS6S-Ido2S 3.8, GlcNS6S-IdOA 4.2

BACEI, sequence (P56817 46-457 limits assumed): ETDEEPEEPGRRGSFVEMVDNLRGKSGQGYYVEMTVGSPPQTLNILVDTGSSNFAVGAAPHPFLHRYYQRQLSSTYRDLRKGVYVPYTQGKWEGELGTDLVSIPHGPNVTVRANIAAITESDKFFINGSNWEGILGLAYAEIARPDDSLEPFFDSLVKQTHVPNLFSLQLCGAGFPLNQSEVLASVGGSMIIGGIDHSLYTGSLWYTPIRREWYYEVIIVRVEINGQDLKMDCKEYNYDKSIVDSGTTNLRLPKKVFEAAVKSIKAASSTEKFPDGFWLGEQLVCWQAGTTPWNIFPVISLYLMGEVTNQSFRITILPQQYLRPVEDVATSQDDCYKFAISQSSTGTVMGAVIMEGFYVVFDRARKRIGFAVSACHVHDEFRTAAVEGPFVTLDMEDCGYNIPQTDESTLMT

Compound | effect on partially active BACEI [1] | Km ([2]; read-out: Km) [µM] | Km ([2]; second line of the substrate, parentheses not explained, read-out: Km, value in parentheses) [µM] | kcat. (turnover number) ([3]; Form A) | Relative catalytic efficiency* ([3]; Form A) | Km ([3]; Form A, read-out: Km) [µM] | Relative catalytic efficiency*, value in parentheses ([3]; Form A, relative to GlcNAc6S = 1, parentheses not explained) | kcat. (turnover number), value in parentheses ([3]; Form A, second line of the substrate, parentheses not explained) | Km ([3]; Form A, second line of the substrate, parentheses not explained, read-out: Km, value in parentheses) [µM] | pH optimum [3] | Ratio of catalytic efficiencies: form A/form B [3] | Ratio of catalytic efficiencies: form A/form B, value in parentheses [3, 6] | pH optimum, value in parentheses [3, 6] | Km [4, 7] [nM] | kcat. (turnover number) [4, 7] | Relative catalytic efficiency* [4, 7] | Relative catalytic efficiency* ([4]; pH (optimum)) | Km [4, 8] [nM] | kcat. (turnover number) [4, 8] | oral activity [5]
heparin | stimulate partially active BACEI | – | – | – | – | – | – | – | – | – | – | – | – | – | – | – | – | – | – | –
O=C(O)[C@H](O)[C@@H](O[C@H]1O[C@H](COS(=O)(=O)O)[C@@H](O)[C@H](O)[C@H]1NS(=O)(=O)O)[C@H](O)[C@@H](O)CO [GlcNS6S-IdOA, O-(α-2-sulphaminoglucosamine 6 sulphate)-(1-3)-L-idonic acid] | – | 8.3 | 6.6 | 2.46 mol/min per mol of enzyme | 13 | 8 | (9.8) | (1.725) mol/min per mol of enzyme | 7.6 | 5.0 | 2.2 | (2.5) | (5.0) | 2400 | 0.088 mol/min per mol of enzyme | 50 | 33 | 2500 | 0.105 mol/min per mol of enzyme | –
heparan sulphate | – | – | – | – | – | – | – | – | – | – | – | – | – | – | – | – | – | – | – | orally active
O=C[C@H](O)[C@@H](O)[C@H](O[C@H]1O[C@H](COS(=O)(=O)O)[C@@H](O)[C@H](O)[C@H]1NS(=O)(=O)O)[C@@H](O)CO [GlcNS6S-Ido, O-(α-2-sulphaminoglucosamine 6-sulphate)-(1-4)-L-idose] | – | 9.2 | – | 0.518 mol/min per mol of enzyme | 2.1 | 10.8 | – | – | – | 4.8 | 1.9 | – | – | – | – | – | 28 | 3000 | 0.061 mol/min per mol of enzyme | –
